Reference: US7538123B2, “Indole derivative having piperidine ring” (Eisai R & D Management Co., Ltd., priority 2004, dated 2009)

Legend:
5-HT1A receptor = target: T1, 5-HT1A receptor (Sus scrofa, UniProt A0A4X1UTF5); assay: Test regarding affinity for serotonin 1A receptor ([3H]MPPF binding inhibition); parameters: species or system swine
T1 construct: from tissue; host or cells: swine hippocampus, membrane fraction
T1 sequence (A0A4X1UTF5 1-422): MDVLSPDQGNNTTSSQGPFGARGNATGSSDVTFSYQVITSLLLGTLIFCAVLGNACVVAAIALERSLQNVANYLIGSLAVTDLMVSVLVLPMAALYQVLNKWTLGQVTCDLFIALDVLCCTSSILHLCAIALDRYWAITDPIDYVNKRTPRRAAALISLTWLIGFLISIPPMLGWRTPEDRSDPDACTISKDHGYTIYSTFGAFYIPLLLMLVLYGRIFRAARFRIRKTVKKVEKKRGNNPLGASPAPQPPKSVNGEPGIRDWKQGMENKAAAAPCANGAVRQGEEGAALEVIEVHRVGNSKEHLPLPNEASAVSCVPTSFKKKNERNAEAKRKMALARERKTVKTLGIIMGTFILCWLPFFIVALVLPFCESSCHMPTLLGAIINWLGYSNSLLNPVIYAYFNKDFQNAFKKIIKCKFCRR
From the text: (1) The affinity of a test substance for a 5-HT1A receptor was examined by an inhibition experiment, in which the inhibitory effect of the test substance against the binding of [^3H]-4-(2′-methoxy)phenyl-1-(2′-(N-2″-pyridinyl)-p-fluorobenzamido)ethyl-piperazine (MPPF) that selectively binds to the 5-HT1A receptor in a swine hippocampal membrane fraction was examined. The 5-HT1A receptor that is a G-protein binding receptor becomes a G-protein binding state with addition of MgCl2. In contrast, it becomes a G-protein non-binding state with addition of guanylylimido diphosphate (Gpp(NH)p). […] Thus, both the affinity of a test substance to the receptor that was in a state of not binding to the G-protein and the affinity of the test substance to the receptor that was in a state of binding to the G-protein were obtained. […]
A mixture (0.5 ml) used for incubation comprised an appropriate amount of the membrane fraction, a test substance with a desired concentration, MgCl2 (final concentration: 10 mM) or Gpp(NH)p (final concentration: 1 mm ), [^3H]MPPF (final concentration: 0.5 nM), dimethyl sulfoxide (final concentration: 1% (v/v)), and a 50 mM Tris-Hcl buffer (pH 7.4). […] Thereafter, radioactivity binding to the receptor was measured with a liquid scintillation counter. Non-specific binding was defined as binding detected in the presence of 10 μM WAY-100,635.

serotonin 1A receptor = target: T2, serotonin 1A receptor (Mus musculus, UniProt Q64264); assay: Antagonistic effect on serotonin 1A receptor agonist-induced hypothermia in mouse; format: in vivo; conditions: for ED50: sc, 15 minutes before 8-hydroxy-dipropylaminotetralin 0.5 mg/kg sc, inhibition of hypothermia, CD-1 (ICR) male mice, read-out: ED50
T2 construct: into the rectum of CD-1 (ICR) male mice (25-45 g); from tissue; host or cells: living CD-1 (ICR) male mice (whole animal)
T2 sequence (Q64264 1-421): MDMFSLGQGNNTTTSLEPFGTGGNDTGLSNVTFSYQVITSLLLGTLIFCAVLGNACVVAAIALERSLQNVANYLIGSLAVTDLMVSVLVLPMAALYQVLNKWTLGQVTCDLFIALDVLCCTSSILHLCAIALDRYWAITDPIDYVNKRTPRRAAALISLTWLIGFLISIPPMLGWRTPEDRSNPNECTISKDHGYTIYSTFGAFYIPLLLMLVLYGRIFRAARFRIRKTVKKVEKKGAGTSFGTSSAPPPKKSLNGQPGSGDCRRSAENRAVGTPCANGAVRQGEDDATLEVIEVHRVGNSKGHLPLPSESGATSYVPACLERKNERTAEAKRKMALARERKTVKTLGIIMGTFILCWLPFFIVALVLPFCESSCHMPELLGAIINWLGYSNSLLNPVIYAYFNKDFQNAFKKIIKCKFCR
Procedure: (1) A thermistor probe was inserted at a depth of approximately 2 cm into the rectum of CD-1 (ICR) male mice (25-45 g), so as to measure the body temperature thereof. Body temperature is decreased by subcutaneous administration of serotonin 1A receptor agonist (8-hydroxy-dipropylaminotetralin) 0.5 mg/kg. Since a serotonin 1A antagonist inhibits such action, the antagonistic effect of a test substance to a serotonin 1A receptor was evaluated using the inhibitory effect of the hypothermia as an index. A test substance was administered 15 minutes before the administration of the serotonin 1A agonist. A serotonin 1A partial agonist alone decreases the body temperature, depending on the degree of the agonistic action thereof. In addition, it has a weak antagonistic effect on 8-hydroxy-dipropylaminotetralin-induced hypothermia. (2) Results

ED50 (serotonin 1A receptor) | Structure (SMILES) | also measured
> 1 mg/kg | NC(=O)c1ccc2ccn(C3CCN(CCc4ccc(F)cc4)CC3)c2c1 [Compound A, reference compound] | affinity for 5-HT1A / receptor binding action (in words) (5-HT1A receptor): has affinity; antagonistic effect against the 5-HT1A receptor / pharmacological effect (in words) (serotonin 1A receptor; in vivo): weak
0.19 mg/kg | CNC(=O)c1ccc2ccn(C3CCN(CCc4cc5c(cc4OC)CCN(C)C5=O)CC3)c2c1 [Compound 38, 1-{1-[2-(6-methoxy-2-methyl-1-oxo-1,2,3,4-tetrahydroisoquinolin-7-yl)ethyl]piperidin-4-yl}-N-methyl-1H-indole-6-carboxamide] | –
0.3 mg/kg | COc1cc2c(cc1CCN1CCC(n3ccc4ccc(C(N)=O)cc43)CC1)C(=O)CC(C)(C)O2 [Compound 24, 1-{1-[2-(7-methoxy-2,2-dimethyl-4-oxochroman-6-yl)ethyl]piperidin-4-yl}-1H-indole-6-carboxamide] | –
0.62 mg/kg | COc1ccc2ncccc2c1CCN1CCC(n2ccc3ccc(C(N)=O)cc32)CC1 [Compound 30, 1-{1-[2-(6-methoxyquinolin-5-yl)ethyl]piperidin-4-yl}-1H-indole-6-carboxamide] | –

The remaining lines, values behind:

Structure (SMILES) | ED50 (serotonin 1A receptor) | also measured
COc1cc2c(cc1CCN1CCC(n3ccc4ccc(C(N)=O)cc43)CC1)N(C)C(=O)OC2 [Compound 39, 1-{1-[2-(6-methoxy-methyl-oxo-1,4-dihydro-2H-benz[d][1,3]oxazin-7-yl)ethyl]piperidin-4-yl}-1H-indole-6-carboxamide] | – | L/H ratio (5-HT1A receptor; low affinity IC50 divided by high affinity IC50, 1 or smaller = no intrinsic activity, 2 or greater = intrinsic activity): 0.7
COc1ccc2c(=O)ccoc2c1CCN1CCC(n2ccc3ccc(C(N)=O)cc32)CC1 [Compound 35, 1-{1-[2-(7-methoxy-4-oxo-4H-chromen-8-yl)ethyl]piperidin-4-yl}-1H-indole-6-carboxamide] | 0.2 mg/kg | –
CCc1nc2ccc(OC)c(CCN3CCC(n4ccc5ccc(C(N)=O)cc54)CC3)c2o1 [Compound 5] | 0.24 mg/kg | –
CNC(=O)c1ccc2ccn(C3CCN(CCc4c(OC)ccc5c4OC(C)(C)CC5=O)CC3)c2c1 [Compound 20, 1-{1-[2-(7-methoxy-2,2-dimethyl-4-oxochroman-8-yl)ethyl]piperidin-4-yl}-N-methyl-1H-indole-6-carboxamide] | 0.03 mg/kg | –
